# Laboratory results reported in paper PMC3059644 (Frontiers in Psychiatry, 2010).
# Like-named read-outs stand apart in the source and are kept apart here.
# Experiments:
# [1] = molecular target: T1, typical adenosine A2A receptors (Rattus norvegicus, UniProt P30543); test: [3H]CGS21680 specific binding in rat hippocampus in the presence of DPCPX (typical sites); settings: DPCPX used to isolate typical sites
# [2] = test system: [3H]CGS21680 binding sites; set-up: method as in Cunha et al., 1996, 1997; settings: ref Cunha et al., 1996, 1997, cited from earlier work
# [3] = molecular target: T2, total adenosine A2A receptors (Rattus norvegicus, UniProt P30543); test: Displacement of [3H]CGS21680 binding in rat striatal membranes, compounds alone (total)
# T2 sequence (P30543 whole entry): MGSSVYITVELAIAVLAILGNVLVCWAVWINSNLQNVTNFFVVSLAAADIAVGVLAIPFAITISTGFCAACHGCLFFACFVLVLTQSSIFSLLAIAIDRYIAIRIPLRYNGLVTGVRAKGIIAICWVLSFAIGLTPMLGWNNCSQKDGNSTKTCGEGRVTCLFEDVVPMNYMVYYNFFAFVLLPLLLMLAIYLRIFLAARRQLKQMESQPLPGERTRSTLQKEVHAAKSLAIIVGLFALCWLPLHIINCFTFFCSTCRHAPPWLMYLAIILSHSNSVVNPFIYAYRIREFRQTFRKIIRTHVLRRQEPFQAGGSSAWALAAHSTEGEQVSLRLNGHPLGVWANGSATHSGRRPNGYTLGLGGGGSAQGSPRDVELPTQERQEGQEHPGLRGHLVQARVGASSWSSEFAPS
# [4] = molecular target: T2, total adenosine A2A receptors; test: Displacement of [3H]CGS21680 binding in rat hippocampal membranes, compounds alone (total)
# [5] = molecular target: atypical adenosine A2A receptors; test: Displacement of [3H]CGS21680 binding in rat striatum in the presence of CSC (atypical sites)
# [6] = test system: atypical adenosine A2A receptors; test: Displacement of [3H]CGS21680 binding in rat hippocampus in the presence of CSC (atypical sites)
# Description: The collected tissues were homogenized in about 25 volumes of incubation buffer and centrifuged at 40,000 g for 10 min at 4°C. The pellet was resuspended in the same fresh buffer, homogenized, centrifuged once again and the final pellet stored at −80°C until use. […] Prior to the competition binding assay, the pellet was resuspended in appropriate buffer at the wanted protein concentration and membrane suspension incubated with 5 U/ml adenosine deaminase (ADA, Sigma-Aldrich) for 30 min at 37°C to remove endogenous adenosine. The protein concentration of membrane suspension was determined using the Bradford method (Pierce, Rockford, IL, USA) with bovine albumin as standard. Competition binding experiments with [^3H]CGS21680 were performed by incubating membranes (50–100 μg of protein/sample) with a single concentrations of [^3H]CGS21680 (30 nM) for 2 h at room temperature in a solution containing 50 mM Tris-HCl, pH 7.4, 10 mM MgCl2 and 5 U/ml ADA and various concentrations (ranging from 10^−5 to 10^−12 M) of test compounds. Non-specific binding was determined in the presence of an excess of cold 2-chloroadenosine (Sigma-Aldrich). The binding reactions were stopped by vacuum filtration through GF/B filters, followed by washing of the filters with ice-cold washing buffer (same composition as the binding buffer) and filter-bound radioactivity measured by scintillation spectrometry. Competition studies were performed with the various compounds alone or in the presence of an excess of either CSC or DPCPX (both from Sigma-Aldrich). The compounds were dissolved in 100% DMSO (Sigma-Aldrich) at a concentration of 10 mM and stored at −20°C. An intermediate 100 μM working solution was prepared in water and subsequent scalar working solutions in incubation buffer.
# [7] = test system: adenosine A2A receptors versus A1 receptors; settings: cited from earlier work
# [8] = molecular target: T1, typical adenosine A2A receptors; test: Displacement of [3H]CGS21680 binding in rat striatum in the presence of DPCPX (typical sites)
# A1 and A2A receptors = settings: transfected cells; ref Minetti et al., 2005; cited from earlier work
# adenosine A2B receptor = settings: cited from earlier work
# adenosine A1 receptors = molecular target: adenosine A1 receptors; set-up: method as in Hutchison et al., 1989; settings: ref Hutchison et al., 1989; cited from earlier work
# adenosine A2A receptors = settings: read-out: Ki for adenosine A2A receptors; ref Hutchison et al., 1989; cited from earlier work
# T1 sequence (P30543 whole entry): as above
smiles,measurement,setting,value
"CCCn1c(=O)c2[nH]c(C3CCCC3)nc2n(CCC)c1=O [DPCPX, 8-cyclopentyl-1,3-dipropylxanthine]",effect on [3H]CGS21680 specific binding in hippocampus,[1],completely abolished
same,concentrations displacing most of the [3H]CGS21680 binding in hippocampus and cortex,"[2]; hippocampus and cortex, not striatum",low nanomolar concentrations
"Nc1nc2c(cnn2CCc2ccccc2)c2nc(-c3ccco3)nn12 [SCH58261, reference compound]",IC50,[3],16.7 nM
same,Ki,[3],4.8 nM
same,difference in affinity values between striatum and hippocampus,[4],about 200 fold
"CCn1c(=O)c2c(nc(/C=C/c3ccc(OC)c(OC)c3)n2C)n(CC)c1=O [KW6002, (E)-1,3-diethyl-8-(3,4-dimethoxystyryl)-7-methyl-3,7-dihydro-1H-purine-2,6,dione, reference compound]",Ki,[5],74.2 nM
same,decrease in affinity for atypical binding sites,[5],decreased from two to five fold
same,binding in hippocampus in the presence of CSC,[6],no binding
"Cn1c(=O)c2c(nc(C=Cc3cccc(Cl)c3)n2C)n(C)c1=O [CSC, 8-(3-chlorostyryl)-caffeine]",A2A/A1 selectivity,"[7]; ref Jacobson et al., 1993",520 fold
same,loss of potency in inhibiting [3H]CGS21680 binding in hippocampus and cortex versus striatal membranes,[2],10 fold
"CCCCc1nc(N)c2nc(-n3nccn3)n(C)c2n1 [ST1535, 2 butyl-9-methyl-8-(2H-1,2,3-triazol 2-yl)-9H-purin-6-xylamine]",IC50,"[3]; Figure 1, rat striatum, 30 nmol/L [3H]CGS21680, (95% CI), read-out: IC50",79.6 nM
same,Ki,"[3]; rat striatal membranes, 30 nM [3H]CGS21680, mean (95% CI) of 3-4 experiments, read-out: Ki values (nM) in striatum, Total",22.8 nM
same,"Hill coefficient, total striatal receptors","[3]; striatum, total",0.7
same,Hill Slope,"[8]; Figure 2, rat striatum, 100 nmol/L DPCPX",-1.007
same,IC50,"[8]; Figure 2, rat striatum, 100 nmol/L DPCPX, (95% CI)",118 nM
same,Ki,"[8]; rat striatal membranes, in the presence of DPCPX, mean (95% CI)",33.7 nM
same,"Hill coefficient, typical striatal receptors","[8]; striatum, typical",around the unit
same,IC50,"[5]; Figure 3, rat striatum, 200 nmol/L CSC, (95% CI)",256 nM
same,Ki,"[5]; rat striatal membranes, in the presence of CSC, mean (95% CI)",73 nM
same,decrease in affinity for atypical binding sites,"[5]; striatum, atypical versus total and typical",decreased from two to five fold
same,Hill coefficients in the hippocampus,[4]; hippocampus,0.6–0.8
same,difference in affinity values between striatum and hippocampus,"[4]; total A2A binding, hippocampus versus striatum",about 5 fold
same,ratio between A1 and A2A receptors,A1 and A2A receptors,about 10 fold
same,concentrations for A2B receptor higher than those for A2A receptors,"adenosine A2B receptor; ref Stasi et al., 2006",about 3 fold
same,IC50,"[6]; Figure 5, rat hippocampus, 200 nmol/L CSC, (95% CI)",446 nM
same,binding in hippocampus in the presence of CSC,"[6]; hippocampus, in the presence of CSC",displaced some affinity
same,Ki,"[6]; read-out: Ki values (nM) in hippocampus, Atypical, rat hippocampal membranes, in the presence of CSC, mean (95% CI)",146 nM
"CCNC(=O)[C@H]1O[C@@H](n2cnc3c(N)nc(NCCc4ccc(CCC(=O)O)cc4)nc32)[C@H](O)[C@@H]1O [CGS21680, 2-p-(2-carboxyethyl)phenethyl-amino-5’-N-ethylcarbox-amidoadenosine]",Ki,adenosine A1 receptors,~3100 nM
same,Ki,adenosine A2A receptors,~22 nM
"Nc1nc(NCCc2ccc(O)cc2)nc2nc(-c3ccco3)nn12 [ZM241385, reference compound]",concentrations for A2B receptor higher than those for A2A receptors,"adenosine A2B receptor; ref Linden et al., 1999",22 fold
"CCCn1c(=O)c2c(nc(/C=C/c3ccc(OC)c(OC)c3)n2C)n(CCC)c1=O [KF17837, (E)-8-(3,4-dimethoxystyryl)-1,3-dipropyl-7-methylxanthine]",A2A/A1 selectivity,"[7]; ref Nonaka et al., 1994",62 fold
same,loss of potency in inhibiting [3H]CGS21680 binding in hippocampus and cortex versus striatal membranes,[2],10 fold
